Where “and” joins values, the source holds several entries; their conditions need not be identical. Equal values may be shown once. Read-outs that look alike come from different tables or passages of the source.
Assays:
[1] = system: human neutrophils; assay: Cytotoxicity in human neutrophils (CellTiter Glo); type: cell-based
Procedure: For the chemotaxis and cytotoxicity evaluations, average relative light unit values were calculated from all untreated vehicle samples and, for each sample, percentage of vehicle value was calculated. The tested compound was considered cytotoxic if reduction from untreated vehicle was ≥20%.

[2] = system: J774.2 mouse macrophages; assay: Cytotoxicity in J774.2 mouse macrophages (adenylate kinase release, ToxiLight); type: cell-based; settings: for cell viability: J774.2 cells; for fold-change of adenylate kinase release at test concentration vs vehicle control, Mean ± SEM: J774.2 mouse macrophages, n=2
Procedure: The effect of t est compounds on cell viabilit y of J 774.2 macrophages and human PBMCs […]
was determined b y comp aring th e aden yl ate kinas e signal obtain ed in the p resence of diff er ent concentrations of compounds with those obtained in DMSO (vehicle) control. Signals were […]
divided,and the results were ex pressed as fold-change versus v ehicle con trol .

[3] = system: TNF-α, IL-6, IL-1β, GM-CSF, CXCL-1, CXCL-2, CCL-2 and MMP-9 in lung tissue; assay: LPS-induced cytokines, chemokines and MMP-9 in mouse lung homogenates (Luminex, ELISA); settings: for CCL2 % reduction / CXCL1 % reduction / CXCL2 % reduction / GM-CSF % reduction / IL-1β % reduction / IL-6 % reduction / MMP9 % reduction / TNFα % reduction / CCL2 / CXCL1 / CXCL2 / GM-CSF / IL-1β / IL-6 / MMP9 / TNFα / CCL2 Mean / CXCL1, Mean / CXCL2, Mean / GM-CSF Mean / IL-1β Mean / IL-6 Mean / MMP9, Mean / TNFα Mean: lung homogenate, LPS; for CCL2 / CXCL1 / CXCL2 / GM-CSF / IL-1β / IL-6 / MMP9 / TNFα: individual animal, listed as Lef; for CCL2 Mean / CXCL1, Mean / CXCL2, Mean / GM-CSF Mean / IL-1β Mean / IL-6 Mean / MMP9, Mean / TNFα Mean: mean of 8
Procedure: To induce pulmonary neutrophilia, mice in the control group received intranasal (IN) 50 μL saline, and all other animals received 5 μg LPS/50 μL saline IN per mouse.
After bronchoalveolar lavage, lungs were removed, weighed, snap frozen, and stored at −80°C until analysis. To homogenize the tissue, the frozen lungs were thawed and placed in Precellys CK28 Hard Tissue tubes (BERTIN Instruments, Montigny-le-Bretonneux, France) in 1 mL PBS (Gibco, Life Technologies, Paisley, UK) supplemented with protease inhibitors (Halt™ Protease Inhibitor Cocktail [100×]; Thermo Fisher Scientific, Rockford, IL, USA). A Precellys homogenizer (BERTIN Instruments) was used, shaking at 6800 rpm for three 30-second pulses separated by 15-second pauses. After homogenization, samples were centrifuged at 18,000×g for 10 minutes at 4°C, and the supernatants were collected for analysis.
Concentrations of tumor necrosis factor (TNF)-α, IL-6, granulocyte-macrophage colony-stimulating factor (GM-CSF), chemokine (C-X-C motif) ligand (CXCL)-1, CXCL-2, and chemokine (C-C motif) ligand (CCL)-2 in mouse lung homogenates were analyzed with the Mouse Premixed Multi-Analyte Kit (R&D Systems, Minneapolis, MN, USA) per the manufacturer’s protocol and using a Luminex 200 System (Luminex Corporation, Austin, TX, USA). Cytokine and chemokine concentrations were determined from blank-corrected median fluorescence intensity of each sample via xPONENT® software (Luminex Corporation), interpolating from standard curves generated with a 5-parameter logistic curve-fit.
Mouse Total MMP (matrix metalloprotease)-9 and IL-1β/IL-1F2 DuoSet ELISA (enzyme-linked immunosorbent assay) kits (R&D Systems) were used to measure concentrations of MMP-9 and IL-1β, respectively, in lung homogenates per the manufacturer’s protocols. Absorbance at 450 nm was measured using the SpectraMax i3 (Molecular Devices, San Jose, CA, USA). Concentrations of MMP-9 and IL-1β in samples were determined by interpolation from standard curves.
Differences between treated versus vehicle groups were determined using the Mann-Whitney test and were considered statistically significant when P<0.05. Outliers in the analysis of cytokine and chemokine concentrations were identified using the Grubbs test. No criteria were set for inclusion/exclusion of animals during the experiment or data points during the analysis.

[4] = Pharmacokinetics in plasma and epithelial lining fluid of mice after a single SC dose; type: in vivo, BALB/c mice; settings: for AUC(0-t): read-out: AUC0-24h, mean±SEM; for Cmax: read-out: Cmax, mean±SEM
Procedure: Pharmacokinetic parameters were evaluated as previously described. […] Plasma samples were analyzed by liquid chromatography with […] mass spectrometry (Q Exactive Plus; Thermo Fisher Scientific).
Area under the curve (AUC) values were determined using the linear trapezoidal method.

[5] = all doses (10, 30, 100 mg/kg SC)
[6] = all doses tested (10, 30, 100 mg/kg SC), vs vehicle control
[7] = female, BALB/c, mouse, epithelial lining fluid (ELF), ELF, mice, single 35 mg/kg SC
[8] = female, BALB/c, mouse, plasma, mice, single 35 mg/kg SC

## C=C[C@]1(C)C[C@@H](OC(=O)CS[C@@H]2CC[C@@H](N)C[C@H]2O)[C@]2(C)[C@H](C)CC[C@]3(CCC(=O)[C@H]32)[C@@H](C)[C@@H]1O [Lefamulin]
[1]; 0.03 µM, n=3, percentage of RLU
  % viability at test concentration vs vehicle control, Mean ± SEM: 105 ± 1.36%
[1]; 0.1 µM, n=3
  % viability at test concentration vs vehicle control, Mean ± SEM: 106 ± 1.34%
[1]; 0.3 µM, n=3
  % viability at test concentration vs vehicle control, Mean ± SEM: 105 ± 2.39%
[1]; 1 µM, n=3
  % viability at test concentration vs vehicle control, Mean ± SEM: 103 ± 4.22%
[1]; 3 µM, n=3
  % viability at test concentration vs vehicle control, Mean ± SEM: 103 ± 3.07%
[1]; 10 µM, n=3
  % viability at test concentration vs vehicle control, Mean ± SEM: 102 ± 2.98%
[1]; 30 μM, cytotoxic if reduction from vehicle ≥20%
  cytotoxic effects: no cytotoxic effects
[1]; 30 µM, n=3
  % viability at test concentration vs vehicle control, Mean ± SEM: 101 ± 2.58%
[1]; 100 µM, n=3
  % viability at test concentration vs vehicle control, Mean ± SEM: 86 ± 2.99%
[1]; 100 µM, n=3, listed as lefamulin
  % viability at test concentration vs vehicle control, Mean ± SEM: 86%
[2]; 30 μM
  cell viability: reduced
[2]; 100 μM
  cell viability: reduced
[2]; 0.03 µM
  fold-change of adenylate kinase release at test concentration vs vehicle control, Mean ± SEM: 1.33 ± 0.11 fold-change
[2]; 0.1 µM
  fold-change of adenylate kinase release at test concentration vs vehicle control, Mean ± SEM: 1.27 ± 0.23 fold-change
[2]; 0.3 µM
  fold-change of adenylate kinase release at test concentration vs vehicle control, Mean ± SEM: 1.10 ± 0.16 fold-change
[2]; 1 µM
  fold-change of adenylate kinase release at test concentration vs vehicle control, Mean ± SEM: 0.89 ± 0.08 fold-change
[2]; 3 µM
  fold-change of adenylate kinase release at test concentration vs vehicle control, Mean ± SEM: 1.12 ± 0.18 fold-change
[2]; 10 µM
  fold-change of adenylate kinase release at test concentration vs vehicle control, Mean ± SEM: 1.26 ± 0.27 fold-change
[2]; 30 µM
  fold-change of adenylate kinase release at test concentration vs vehicle control, Mean ± SEM: 2.00 ± 0.13 fold-change
[2]; 100 µM
  fold-change of adenylate kinase release at test concentration vs vehicle control, Mean ± SEM: 6.18 ± 0.05 fold-change
[3]; 10, 30, and 100 mg/kg SC, vs vehicle
  levels of all cytokines and chemokines assessed, as well as of MMP-9, in lung homogenate: significantly reduced
[3]; 30 and 100 mg/kg SC
  MMP-9 levels in lung homogenate: Significant reductions
[3]; [5]
  IL-1β concentrations in lung homogenate: dose-dependent effect
  chemokines and GM-CSF in lung homogenate: Significant reductions
[3]; [6]
  IL-6 concentrations in lung homogenate: significantly reduced
  TNF-α concentrations in lung homogenate: significantly reduced
[3]; highest dose, 100 mg/kg SC
  IL-1β concentrations in lung homogenate: significant inhibition
[3]; 10 mg/kg
  CCL2 % reduction: 93%
  CXCL1 % reduction: 62%
  CXCL2 % reduction: 73%
  GM-CSF % reduction: 85%
  IL-1β % reduction: -19%
  IL-6 % reduction: 106%
  MMP9 % reduction: 8%
  TNFα % reduction: 79%
  CCL2: 1377.65 pg/mL and 537.39 pg/mL and 646.70 pg/mL and 438.83 pg/mL and 518.31 pg/mL and 1456.64 pg/mL and 908.74 pg/mL and 229.87 pg/mL
  CXCL1: 6971.93 pg/mL and 4329.90 pg/mL and 5523.90 pg/mL and 4582.09 pg/mL and 5582.50 pg/mL and 5633.76 pg/mL and 4136.19 pg/mL and 3104.94 pg/mL
  CXCL2: 5052.98 pg/mL and 3065.52 pg/mL and 3267.04 pg/mL and 2748.29 pg/mL and 3142.03 pg/mL and 3891.00 pg/mL and 3712.25 pg/mL and 1806.80 pg/mL
  GM-CSF: 67.71 pg/mL and 29.84 pg/mL and 24.75 pg/mL and 26.44 pg/mL and 92.13 pg/mL and 45.24 pg/mL
  IL-1β: 13048 pg/mL and 11802 pg/mL and 8955 pg/mL and 11618 pg/mL and 14924 pg/mL and 15796 pg/mL and 14205 pg/mL and 13632 pg/mL
  IL-6: 250.42 pg/mL and 122.57 pg/mL and 71.56 pg/mL and 75.97 pg/mL and 378.35 pg/mL and 273.00 pg/mL and 109.22 pg/mL
  MMP9: 2581 pg/mL and 2222 pg/mL and 2051 pg/mL and 2196 pg/mL and 2373 pg/mL and 1878 pg/mL and 2354 pg/mL and 2294 pg/mL
  TNFα: 82.13 pg/mL and 385.92 pg/mL and 198.20 pg/mL and 183.71 pg/mL and 132.63 pg/mL and 135.37 pg/mL and 337.98 pg/mL and 306.86 pg/mL
  CCL2 Mean: 764 pg/mL
  CXCL1, Mean: 4983 pg/mL
  CXCL2, Mean: 3336 pg/mL
  GM-CSF Mean: 43 pg/mL
  IL-1β Mean: 12997 pg/mL
  IL-6 Mean: 175 pg/mL
  MMP9, Mean: 2244 pg/mL
  TNFα Mean: 220 pg/mL
[3]; 30 mg/kg
  CCL2 % reduction: 105%
  CXCL1 % reduction: 52%
  CXCL2 % reduction: 61%
  GM-CSF % reduction: 95%
  IL-1β % reduction: 8%
  IL-6 % reduction: 120%
  MMP9 % reduction: 26%
  TNFα % reduction: 77%
  CCL2: 664.18 pg/mL and 229.87 pg/mL and 256.42 pg/mL and 281.81 pg/mL and 306.24 pg/mL and 172.04 pg/mL
  CXCL1: 9099.72 pg/mL and 7572.60 pg/mL and 6087.32 pg/mL and 5765.52 pg/mL and 5509.25 pg/mL and 4685.62 pg/mL and 6328.54 pg/mL and 4359.63 pg/mL
  CXCL2: 7789.00 pg/mL and 4810.48 pg/mL and 4106.80 pg/mL and 4675.09 pg/mL and 4634.09 pg/mL and 3899.14 pg/mL and 3943.89 pg/mL and 3825.96 pg/mL
  GM-CSF: 46.10 pg/mL and 24.75 pg/mL and 27.29 pg/mL and 23.05 pg/mL and 21.37 pg/mL and 16.32 pg/mL and 9.66 pg/mL
  IL-1β: 12246 pg/mL and 8161 pg/mL and 9564 pg/mL and 10656 pg/mL and 10104 pg/mL and 9202 pg/mL and 9081 pg/mL and 11831 pg/mL
  IL-6: 118.12 pg/mL and 87.03 pg/mL and 60.54 pg/mL and 67.15 pg/mL and 58.34 pg/mL and 45.17 pg/mL and 29.90 pg/mL and 48.46 pg/mL
  MMP9: 2129 pg/mL and 1886 pg/mL and 1848 pg/mL and 1924 pg/mL and 1726 pg/mL and 1867 pg/mL and 2081 pg/mL and 2097 pg/mL
  TNFα: 186.35 pg/mL and 395.67 pg/mL and 202.12 pg/mL and 215.17 pg/mL and 246.13 pg/mL and 275.41 pg/mL and 284.25 pg/mL and 181.07 pg/mL
  CCL2 Mean: 296 pg/mL
  CXCL1, Mean: 6176 pg/mL
  CXCL2, Mean: 4711 pg/mL
  GM-CSF Mean: 23 pg/mL
  IL-1β Mean: 10106 pg/mL
  IL-6 Mean: 64 pg/mL
  MMP9, Mean: 1945 pg/mL
  TNFα Mean: 248 pg/mL
[3]; 100 mg/kg
  CCL2 % reduction: 107%
  CXCL1 % reduction: 57%
  CXCL2 % reduction: 64%
  GM-CSF % reduction: 96%
  IL-1β % reduction: 24%
  IL-6 % reduction: 117%
  MMP9 % reduction: 53%
  TNFα % reduction: 81%
  CCL2: 329.86 pg/mL and 256.42 pg/mL and 172.04 pg/mL and 139.64 pg/mL
  CXCL1: 7499.26 pg/mL and 6087.32 pg/mL and 5076.24 pg/mL and 5758.20 pg/mL and 5443.29 pg/mL and 4906.96 pg/mL and 4656.06 pg/mL and 5472.61 pg/mL
  CXCL2: 5382.65 pg/mL and 5518.93 pg/mL and 4695.59 pg/mL and 3380.13 pg/mL and 4061.97 pg/mL and 3178.30 pg/mL and 3700.08 pg/mL and 4913.16 pg/mL
  GM-CSF: 21.37 pg/mL and 19.68 pg/mL and 33.25 pg/mL and 14.65 pg/mL and 16.32 pg/mL and 11.32 pg/mL
  IL-1β: 10645 pg/mL and 6459 pg/mL and 7591 pg/mL and 8558 pg/mL and 9892 pg/mL and 7429 pg/mL and 7844 pg/mL and 8730 pg/mL
  IL-6: 135.95 pg/mL and 78.18 pg/mL and 127.03 pg/mL and 99.22 pg/mL and 71.56 pg/mL and 56.14 pg/mL and 105.88 pg/mL
  MMP9: 2385 pg/mL and 1353 pg/mL and 1095 pg/mL and 1490 pg/mL and 1351 pg/mL and 1232 pg/mL and 1807 pg/mL and 1236 pg/mL
  TNFα: 204.74 pg/mL and 121.62 pg/mL and 366.33 pg/mL and 248.69 pg/mL and 116.08 pg/mL and 181.07 pg/mL and 124.38 pg/mL and 233.28 pg/mL
  CCL2 Mean: 209 pg/mL
  CXCL1, Mean: 5612 pg/mL
  CXCL2, Mean: 4354 pg/mL
  GM-CSF Mean: 19 pg/mL
  IL-1β Mean: 8394 pg/mL
  IL-6 Mean: 91 pg/mL
  MMP9, Mean: 1494 pg/mL
  TNFα Mean: 200 pg/mL
[4]; 35 mg/kg SC in mice, human data ref 29
  plasma AUC0-24h in mice compared with exposures in healthy volunteers after a single dose of 150 mg IV: comparable
[4]; ELF, mice, single 35 mg/kg SC
  AUC0-24h/Dose, mean: 0.36 (μg∙h/mL)/(mg/kg)
[4]; female, BALB/c, mouse, epithelial lining fluid (ELF) / plasma, mice, single 35 mg/kg SC, read-out: AUC ratio for ELF to plasma
  Kp: ~2
[4]; [7]
  Tmax: 30 min
  AUC(0-t): 12600 ± 1170 ng·h/mL
  Cmax: 2160 ± 500 ng/mL
[4]; [8]
  Tmax: 30 min
  AUC(0-t): 6250 ± 930 ng·h/mL
  Cmax: 1330 ± 180 ng/mL
[4]; mice, single SC dose 35 mg/kg
  distribution from plasma to ELF (penetration into the lung compartment): rapid penetration
[4]; plasma, mice, single 35 mg/kg SC
  AUC0-24h/Dose, mean: 0.18 (μg∙h/mL)/(mg/kg)

From PMC8480901 (PLoS ONE, 2021)
